According to patent US8247211B2, “Glycopeptide antibiotics” (American Cyanamid Company, priority 2001, dated 2012):
Values after ≈ are worked out from the molar mass of the structure shown.

What was measured:
Assay in all cases: In vitro antibacterial evaluation: minimum inhibitory concentration (MIC), broth dilution method
Format in all cases: cell-based
Conditions in all cases: 18 hours at 35° C.
Enterococcus sp. = system: Enterococcus sp.
Outline: (§1)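 Inoculum: 5×10^5 CFU/mL. Range: 64-0.06 μg/mL. Medium: Muller-Hinton II […]; NCCLS M7-A2 broth dilution. Endpoint: lowest concentration inhibiting growth. Strains include methicillin-, penicillin- and/or vancomycin-resistant clinical isolates.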

Escherichia coli = system: Escherichia coli
Outline: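 Test strains, among them recent clinical isolates carrying methicillin, penicillin and/or vancomycin resistance, were inoculated at 5×10^5 CFU/mL. A broth dilution series spanning 64-0.06 μg/mL in Muller-Hinton II […] (NCCLS M7-A2) defined the MIC as the lowest growth-inhibiting concentration.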

Staphylococcus sp. = system: Staphylococcus sp.
Outline: as §1

Streptococcus sp. = system: Streptococcus sp.
Outline: as §1

[1] = broth dilution, inoculum 5×10^5 CFU/mL

MIC Enterococcus avium (GC 4558) (Enterococcus sp.; Enterococcus avium (GC 4558)): 2 µg/mL (≈ 1.34 µM)
MIC Enterococcus faecalis (ATCC 29212) (Enterococcus sp.; Enterococcus faecalis (ATCC 29212)): 4 µg/mL (≈ 2.69 µM)
MIC Enterococcus faecalis (GC 2242) (Enterococcus sp.; Enterococcus faecalis (GC 2242)): 4 µg/mL (≈ 2.69 µM)
MIC Enterococcus faecalis (GC 2691) (Enterococcus sp.; Enterococcus faecalis (GC 2691)): 2 µg/mL (≈ 1.34 µM)
MIC Enterococcus faecalis (GC 3059) (Enterococcus sp.; Enterococcus faecalis (GC 3059)): 2 µg/mL (≈ 1.34 µM)
MIC Enterococcus faecalis (GC 4552) (Enterococcus sp.; Enterococcus faecalis (GC 4552)): 4 µg/mL (≈ 2.69 µM)
MIC Enterococcus faecalis (GC 4553) (Enterococcus sp.; Enterococcus faecalis (GC 4553)): 4 µg/mL (≈ 2.69 µM)
MIC Enterococcus faecalis (GC 4554) (Enterococcus sp.; Enterococcus faecalis (GC 4554)): 4 µg/mL (≈ 2.69 µM)
MIC Enterococcus faecalis (GC 6189) (Enterococcus sp.; Enterococcus faecalis (GC 6189)): 2 µg/mL (≈ 1.34 µM)
MIC Enterococcus faecium (GC 2243) (Enterococcus sp.; Enterococcus faecium (GC 2243)): 2 µg/mL (≈ 1.34 µM)
MIC Enterococcus faecium (GC 4556) (Enterococcus sp.; Enterococcus faecium (GC 4556)): 2 µg/mL (≈ 1.34 µM)
MIC Enterococcus faecium (GC 4557) (Enterococcus sp.; Enterococcus faecium (GC 4557)): 2 µg/mL (≈ 1.34 µM)
MIC Enterococcus faecalis (GC 2242) (Enterococcus sp.; [1]): 4 µg/mL (≈ 2.69 µM)
MIC Enterococcus faecalis (GC 2691) (Enterococcus sp.; [1]): 2 µg/mL (≈ 1.34 µM)
MIC Enterococcus faecalis (GC 3059) (Enterococcus sp.; [1]): 2 µg/mL (≈ 1.34 µM)
MIC Escherichia coli (ATCC 25922) (Escherichia coli; Escherichia coli (ATCC 25922)): >64 µg/mL
MIC Escherichia coli (GC 4559) (Escherichia coli; Escherichia coli (GC 4559)): >64 µg/mL
MIC Escherichia coli (GC 4560) (Escherichia coli; Escherichia coli (GC 4560)): 2 µg/mL (≈ 1.34 µM)
MIC Coagulase Negative Staphylococcus (GC 4547) (Staphylococcus sp.; Coagulase Negative Staphylococcus (GC 4547)): 4 µg/mL (≈ 2.69 µM)
MIC Coagulase Negative Staphylococcus (GC 4548) (Staphylococcus sp.; Coagulase Negative Staphylococcus (GC 4548)): 2 µg/mL (≈ 1.34 µM)
MIC Coagulase Negative Staphylococcus (GC 4549) (Staphylococcus sp.; Coagulase Negative Staphylococcus (GC 4549)): 1 µg/mL (≈ 0.672 µM)
MIC Coagulase Negative Staphylococcus (GC 4551) (Staphylococcus sp.; Coagulase Negative Staphylococcus (GC 4551)): 4 µg/mL (≈ 2.69 µM)
MIC Coagulase Negative Staphylococcus (GC 6257) (Staphylococcus sp.; Coagulase Negative Staphylococcus (GC 6257)): 1 µg/mL (≈ 0.672 µM)
MIC Staphylococcus aureus (ATCC 29213) (Staphylococcus sp.; Staphylococcus aureus (ATCC 29213)): 2 µg/mL (≈ 1.34 µM)
MIC Staphylococcus aureus (GC 1131) (Staphylococcus sp.; Staphylococcus aureus (GC 1131)): 2 µg/mL (≈ 1.34 µM)
MIC Staphylococcus aureus (GC 3051) (Staphylococcus sp.; Staphylococcus aureus (GC 3051)): 2 µg/mL (≈ 1.34 µM)
MIC Staphylococcus aureus (GC 3053) (Staphylococcus sp.; Staphylococcus aureus (GC 3053)): 2 µg/mL (≈ 1.34 µM)
MIC Staphylococcus aureus (GC 4541) (Staphylococcus sp.; Staphylococcus aureus (GC 4541)): 2 µg/mL (≈ 1.34 µM)
MIC Staphylococcus aureus (GC 4542) (Staphylococcus sp.; Staphylococcus aureus (GC 4542)): 2 µg/mL (≈ 1.34 µM)
MIC Staphylococcus aureus (GC 4544) (Staphylococcus sp.; Staphylococcus aureus (GC 4544)): 4 µg/mL (≈ 2.69 µM)
MIC Staphylococcus aureus (GC 4545) (Staphylococcus sp.; Staphylococcus aureus (GC 4545)): 2 µg/mL (≈ 1.34 µM)
MIC Staphylococcus aureus-SMITH (GC 4543) (Staphylococcus sp.; Staphylococcus aureus-SMITH (GC 4543)): 2 µg/mL (≈ 1.34 µM)
MIC Streptococcus agalactiae (GC 4564) (Streptococcus sp.; Streptococcus agalactiae (GC 4564)): <0.06 µg/mL
MIC Streptococcus pneumoniae (ATCC 6301) (Streptococcus sp.; Streptococcus pneumoniae (ATCC 6301)): <0.06 µg/mL
MIC Streptococcus pneumoniae (GC 1894) (Streptococcus sp.; Streptococcus pneumoniae (GC 1894)): <0.06 µg/mL
MIC Streptococcus pneumoniae (GC 4565) (Streptococcus sp.; Streptococcus pneumoniae (GC 4565)): <0.06 µg/mL
MIC Streptococcus pyogenes (GC 4563) (Streptococcus sp.; Streptococcus pyogenes (GC 4563)): <0.06 µg/mL
MIC Streptococcus agalactiae (GC 4564) (Streptococcus sp.; [1]): <0.06 µg/mL
MIC Streptococcus pneumoniae (ATCC 6301) (Streptococcus sp.; [1]): <0.06 µg/mL
MIC Streptococcus pneumoniae (GC 1894) (Streptococcus sp.; [1]): <0.06 µg/mL
MIC Streptococcus pneumoniae (GC 4565) (Streptococcus sp.; [1]): <0.06 µg/mL
MIC Streptococcus pyogenes (GC 4563) (Streptococcus sp.; [1]): <0.06 µg/mL
SMILES: CC(c1ccccc1)C1NC(=O)CNC(=O)C(CO)NC(=O)C(C(O)C2CNC(=N)N2C2OC(CO)C(O)C(O)C2O)NC(=O)C(C(O)C2CNC(=N)N2)NC(=O)C(Cc2ccc(OC3OC(CO)C(OC4OC(CO)C(OCC=C(c5ccccc5)c5ccccc5)C(O)C4O)C(O)C3O)cc2)NC1=O (stereo not drawn) [Example 241a, Cyclo[glycyl-β-methylphenylalanyl-O-[4-O-[4-O-(3,3-diphenylprop-2-en-1-yl)hexopyranosyl]-hexopyranosyl]tyrosyl-3-(2-iminoimidazolidin-4-yl)seryl-3-[3-hexopyranosyl-2-iminoimidazolidin-4-yl)serylseryl]]
MIC Staphylococcus haemolyticus (GC 4546) (Staphylococcus sp.; Staphylococcus haemolyticus (GC 4546)): 2 µg/mL (≈ 1.34 µM)
